Source: US8575116B1, “Polyacetylenic compounds for protecting against pancreatic islet atrophy” (Academia Sinica, priority 2010, dated 2013)

Assays:
STZ-treated C57BL mice = experiment: Insulin sensitizer test: oral dose before insulin injection in STZ-treated C57BL mice; assay type: in vivo, mouse; details: cytopiloyne 0.5 and 2.5, glimepiride 2.5, metformin 60 mgkg^−1 oral; insulin 2.5 IUkg^−1
Experimental: FIGS. 3A-C show cytopiloyne-mediated insulin release depends on pancreatic islet cells. (A) Rat pancreatic islet cells were incubated with glucose-free KRB buffer containing vehicle or cytopiloyne at 1.5, 3, 7, 14, 28 and 42 μM (FIG. 3A-i). Similarly, rat pancreatic islet cells were incubated with KRB buffer containing vehicle, glimepiride (GLM, 10 μM) or cytopiloyne at 1.5, 3, 7, 14, 28 and 42 μM in the presence of 3.3 mM glucose (LG, FIG. 3A-ii) or 16.7 mM glucose (HG, FIG. 3A-iii). The insulin levels were determined using an insulin ELISA kit. The data presented as mean±SEM of 3 independent experiments. (B) Fed C57BL mice, which had already received an injection of STZ, were administered with an oral dose of vehicle, cytopiloyne (CP, 0.1, 0.5 and 2.5 mgkg^−1), and an intraperitoneal injection of insulin (Ins, 2.5 IUkg^−1). Blood sugar levels in the STZ-treated mice were determined using a glucometer. (C) C57BL mice, which had already received STZ, were orally administered with a single dose of vehicle, cytopiloyne (CP, 0.5 and 2.5 mgkg^−1), glimepiride (GLM, 2.5 mgkg^−1), or metformin (60 mgkg^−1), followed by an intraperitoneal injection with insulin (Ins). Blood sugar levels in the STZ-treated mice were determined using a glucometer. All the results from 3 independent experiments are expressed as mean±SEM, and P<0.05 was considered to be statistically significant (*). The number of mice (n) is indicated in parentheses.
To deplete pancreatic β-cells in mice, 6-week-old C57BL females (NLAC, Taipei, Taiwan) were intraperitoneally injected with STZ at 200 mgkg^−1. STZ-treated females with postprandial blood sugar over 500 mgdl^−1 were grouped. […] Blood glucose levels were monitored for 4 h. To distinguish sensitizer activity from releaser activity of cytopiloyne, STZ-treated C57BL mice were tube-fed with vehicle, glimepiride (2.5 mgkg^−1), metformin (60 mgkg^−1) or cytopiloyne (0.5 and 2.5 mgkg^−1) 1 h before insulin injection (2.5 IUkg^−1). Blood glucose levels in the mice were monitored from 0 to 4 h after insulin injection.

RIN-m5F cells = experiment: DAG and cholesterol generation (3H-myristic acid, TLC) in RIN-m5F cells; assay type: cell-based, rat; details: for level of DAG: versus vehicle control, glucose 16.7 mM
Experimental: FIGS. 5A-D show the effects of cytopiloyne on calcium mobilization, DAG generation and PKCa activation. (A) After Fura 2-AM loading, RIN-m5F cells were stimulated with 16.7 mM glucose (HG) and cytopiloyne at 7, 14 and 28 μM. Level of intracellular calcium, as shown by the 340/380 nm ratio, was detected using a fluorescence spectrophotometer. (B) RIN-m5F cells were pulsed with ^3H-myristic acid (5 Cim1^−1) for 16 hours. After washing, the cells were stimulated with glucose, cytopiloyne, PMA and glimepiride. Total lipids were separated on a silica thin layer plate. DAG and cholesterol were visualized with iodine vapor and identified by their standards. (C) RIN-m5F cells were incubated with vehicle (Mock), cytopiloyne (CP, 3, 7 and 14 μM), PMA (1 μM) and 16.7 mM (HG). Membrane or cytosolic proteins were subjected to Western blot with anti-PKCα and anti-Actin antibodies. (D) RIN-m5F cells were incubated with vehicle (Mock), cytopiloyne (CP 7 μM) and PMA (1 μM). After lysis, total lystaes were subjected to Western blot with anti-PKCα, anti-phospho-PKCα and anti-Actin antibodies.
RIN-m5F cells were incubated with ^3H-myristic acid ([…]) for 16 hours. After washing, the cells were treated with glucose, cytopiloyne, PMA and glimepiride. Total lipids were extracted as previously described. Radioactive DAG was separated on a silica thin layer plate with the first developer of ethylacetate: acetic acid: triethylpentane (9:2:5) and the second developer of hexane: diethylether: methanol: acetic acid (90:20:3:2). The spot of DAG was visualized with iodine vapor and identified by DAG standard.

db/db mice = experiment: Blood glucose after a single oral dose in fed diabetic db/db mice; assay type: in vivo, mouse; details: for postprandial blood glucose levels, effect in words: single dose, cytopiloyne 0.1, 0.5 and 2.5 mgkg^−1, glimepiride 2.5 mgkg^−1, diabetic db/db mice; for Blood glucose level: fed db/db mice
Experimental: After 0.5 h, the levels of postprandial blood sugar and insulin from the mice were monitored for additional 4 h. For continued administration, diabetic db/db males were grouped and tube-fed with vehicle, cytopiloyne (0.5 or 2.5 mgkg^−1 day^−1) or glimepiride (2.5 mg kg^−1 day^−1) for the indicated time, while levels of blood sugar, insulin, and glycosylated HbA1c, and glucose tolerance in these mice were determined. To evaluate the prophylaxis of diabetes, diabetes-free db/db mice at 4 weeks of age were tube-fed with vehicle or cytopiloyne (CP, 0.5 mgkg^−1), once a day, for 4 weeks. Unless indicated otherwise, the mice were fasted for 16 h, then Postprandial blood glucose and insulin in these mice were measured.
Glucose levels in mouse blood samples were measured using an Elite® glucometer (Bayer, Pittsburgh, Pa., USA). Insulin levels in blood samples or islet cell supernatants were determined by ELISA assays (Mercodia, Uppsala, Sweden). The levels of glycosylated HbA1c in mouse blood samples were measured using DCA 2000 analyzer (Bayer, Pittsburgh, Pa., USA).
Diabetic db/db mice aged 6 to 8 weeks were grouped, fasted for 12 h, allowed free access to food for 2 h, and removed from food. One half hour after food removal was set as time 0. Postprandial blood was collected from the tail vein of the mice, tube-fed with vehicle, glimepiride (GLM) at 2.5 mg/kg/day and cytopiloyne (CP) at 0.1, 0.5 and 2.5 mg/kg/day. Blood samples were collected at the indicated time intervals (0, 1, 2 and 4 h). The blood glucose levels were determined using a glucometer. The number of mice tested (n) is indicated in parentheses in the first column.

[1] = test system: insulin mRNA in rat primary pancreatic islet cells; experiment: Real-time RT-PCR of insulin mRNA relative to L13 in rat pancreatic islet cells; assay type: cell-based
[2] = test system: adipocyte protein 2 (aP2); experiment: Real-time RT-PCR of aP2 mRNA relative to GAPDH in 3T3-L1 cells; assay type: cell-based, mouse
[3] = single oral dose 2.5 mg/kg, 0 h
[4] = single oral dose 2.5 mg/kg, 1 h
[5] = single oral dose 2.5 mg/kg, 2 h
[6] = single oral dose 2.5 mg/kg, 4 h

Row | Compound | blood sugar lowering when dosed 60 min before insulin injection (STZ-treated C57BL mice) | level of DAG (RIN-m5F cells) | postprandial blood glucose levels, effect in words (db/db mice) | Blood glucose level (db/db mice; [3]) | Blood glucose level (db/db mice; [4]) | Blood glucose level (db/db mice; [5]) | Blood glucose level (db/db mice; [6]) | also measured
1 | CCC1=C(C)CN(C(=O)NCCc2ccc(S(=O)(=O)NC(=O)N[C@H]3CC[C@H](C)CC3)cc2)C1=O [glimepiride, reference compound] | little, if any, lowering effect on blood sugar | significantly increased the level of DAG | significantly reduced postprandial blood glucose levels | 378 ± 9 mg/dL | 237 ± 16 mg/dL | 178 ± 20 mg/dL | 187 ± 6 mg/dL | insulin mRNA relative to L13 mRNA ([1]; 10 μM, rat islet cells, 24 h): slightly decreased insulin transcription; aP2 expression, times of the control ([2]; mouse, 8 days, 10 μM): 31 times
2 | CC#CC#CC#CC#CCCC(CO)O[C@@H]1O[C@H](CO)[C@@H](O)[C@H](O)[C@H]1O (stereo partly drawn) [cytopiloyne, 2-β-D-glucopyranosyloxy-1-hydroxytrideca-5,7,9,11-tetrayne] | little, if any, lowering effect on blood sugar | dose-dependently increased the level of DAG | significantly reduced postprandial blood glucose levels | 365 ± 9 mg/dL | 207 ± 11 mg/dL | 147 ± 12 mg/dL | 129 ± 11 mg/dL | level of cholesterol (RIN-m5F cells): not cholesterol; Blood glucose level (db/db mice; single oral dose 0.1 mg/kg, 0 h): 373 ± 6 mg/dL; Blood glucose level (db/db mice; single oral dose 0.1 mg/kg, 1 h): 267 ± 12 mg/dL; Blood glucose level (db/db mice; single oral dose 0.1 mg/kg, 2 h): 204 ± 17 mg/dL; Blood glucose level (db/db mice; single oral dose 0.1 mg/kg, 4 h): 158 ± 18 mg/dL; Blood glucose level (db/db mice; single oral dose 0.5 mg/kg, 0 h): 369 ± 27 mg/dL; Blood glucose level (db/db mice; single oral dose 0.5 mg/kg, 1 h): 214 ± 15 mg/dL; Blood glucose level (db/db mice; single oral dose 0.5 mg/kg, 2 h): 163 ± 8 mg/dL; Blood glucose level (db/db mice; single oral dose 0.5 mg/kg, 4 h): 132 ± 11 mg/dL; up-regulation of insulin transcription relative to that by 16.7 mM glucose ([1]; 28 μM (FIGS. 4A-B)): 40%; insulin mRNA relative to L13 mRNA, fold ([1]; 28 μM, rat islet cells, 24 h): around 2 times; aP2 expression ([2]; 5, 25 and 50 μM, 3T3-L1 cells): little effect on aP2 expression
